Assay results: the NIST ThermoML archive (doi:10.1021/je100256w)

Assay: cn = amount concentration of the nth substance listed, in mol/dm3
Details: 101 kPa, Liquid, Dip Cell

O=C([O-])c1ccccc1.[Na+] [sodium benzoate] + O
electrical conductivity [S/m]
Details | 298 K | 303 K | 308 K | 313 K
c1 = 1.98e-05 | 1.95e-05 | 1.613e-05 | 1.97e-05 | 2.22e-05
c1 = 3.92e-05 | 3.33e-05 | 3.53e-05 | 3.66e-05 | 4.21e-05
c1 = 5.82e-05 | 4.76e-05 | 5.11e-05 | 5.48e-05 | 5.98e-05
c1 = 7.69e-05 | 5.86e-05 | 6.55e-05 | 6.76e-05 | 7.77e-05
c1 = 9.52e-05 | 7.22e-05 | 7.97e-05 | 8.72e-05 | 9.3e-05
c1 = 0.0001221 | 8.72e-05 | 9.91e-05 | 0.000107 | 0.000116
c1 = 0.0001567 | 0.00011 | 0.000121 | 0.000133 | 0.000143
c1 = 0.00019 | 0.0001285 | 0.00013 | 0.000157 | 0.000167
c1 = 0.0002222 | 0.000145 | 0.000161 | 0.000178 | 0.00019
c1 = 0.0002533 | 0.000161 | 0.000175 | 0.000197 | 0.0002038
c1 = 0.0002906 | 0.00018 | 0.000199 | 0.000206 | 0.000221
c1 = 0.0003264 | 0.000198 | 0.000203 | 0.000224 | 0.000243
c1 = 0.0003607 | 0.000199 | 0.000217 | 0.000243 | 0.000262
c1 = 0.0004 | 0.000216 | 0.000235 | 0.000261 | 0.000285
c1 = 0.0004375 | 0.000231 | 0.000254 | 0.000284 | 0.000307
c1 = 0.0004791 | 0.000245 | 0.000271 | 0.000304 | 0.000332
c1 = 0.000524 | 0.000266 | 0.000291 | 0.000326 | 0.000354
c1 = 0.0005663 | 0.000293 | 0.000307 | 0.000338 | 0.000375
c1 = 0.0006063 | 0.000297 | 0.000324 | 0.000362 | 0.00039
c1 = 0.0006532 | 0.000314 | 0.000341 | 0.000381 | 0.000412
c1 = 0.0007055 | 0.000326 | 0.00036 | 0.000393 | 0.000439
c1 = 0.0007616 | 0.000349 | 0.000379 | 0.000428 | 0.000462
c1 = 0.0008131 | 0.000366 | 0.000398 | 0.000446 | 0.000486
c1 = 0.0008669 | 0.000381 | 0.000414 | 0.000463 | 0.000507
c1 = 0.0009218 | 0.000398 | 0.000432 | 0.000483 | 0.000526
c1 = 0.000977 | 0.000412 | 0.000443 | 0.000493 | 0.000547
c1 = 0.001027 | 0.000431 | 0.000456 | 0.000514 | 0.000563
